Reference: patent US20230085307A1, “PYRIDAZINONE COMPOUND AND HERBICIDE” (NISSAN CHEMICAL CORPORATION, priority 2019, published 2023)

Tests used:
lambsquarters = test: Test Example 5: herbicidal effect by foliage application, plastic box (Table 20, symbol O); type: in vivo, lambsquarters (Chenopodium album); settings: foliage application, three weeks after application
Excerpt: (§1) [Test Example 5] Herbicidal Effect Test by Foliage Application
(§2) Sterilized diluvial soil was placed in a plastic box having a length of 21 cm, a width of 13 cm, and a depth of 7 cm. The seeds of each of southern crabgrass, green foxtail, barnyard grass, wild oat, blackgrass, Italian ryegrass, windgrass, velvetleaf, redroot pigweed, lambsquarters, chickweed, false cleavers, persian speedwell, corn, soybean, rice, wheat, beet, and rapeseed were sowed in a spot-like manner and covered with the soil having a thickness of about 1.5 cm. Thereafter, the plants were grown in a greenhouse at 25° C. to 30° C. After 14-day growth of the plants, the emulsion agent of the compound of the present invention prepared according to Formulation Example 2 was diluted with water so as to achieve a predetermined herbicide amount, and the diluted emulsion agent was uniformly applied to a foliage part with a small-sized spray. Three weeks after the herbicide application, the effect of the herbicide on each plant was evaluated according to the criteria of Test Example 1.

southern crabgrass = test: Test Example 5: herbicidal effect by foliage application, plastic box (Table 20, symbol F); type: in vivo, southern crabgrass (Digitaria ciliaris); settings: foliage application, three weeks after application
Excerpt: as §1, §2

barnyard grass [1] = test: Test Example 3: herbicidal effect by foliage application, Wagner pot (Table 18, symbol H); type: in vivo, barnyard grass (Echinochloa crus-galli)
Protocol: [Test Example 3] Herbicidal Effect Test by Foliage Application After alluvial soil was placed into 1/10000 are of Wagner pot, water was poured and mixed to form a submerged condition having a water depth of 0.1 cm to 0.5 cm. Seeds of barnyard grass, Chinese sprangletop, rice flat sedge, and rice were sowed and the pot was placed in a greenhouse at 25° C. to 30° C. for growth of the plants. After 14-day growth of the plants, the emulsion agent of the compound of the present invention prepared according to Formulation Example 2 was diluted with water so as to achieve a predetermined herbicide amount, and the diluted emulsion agent was uniformly applied to a foliage part with a small-sized spray. Three weeks after the herbicide application, the effect of the herbicide on each plant was evaluated according to the criteria of Test Example 1.

persian speedwell = test: Test Example 5: herbicidal effect by foliage application, plastic box (Table 20, symbol R); type: in vivo, Persian speedwell (Veronica persica); settings: foliage application, three weeks after application
Excerpt: as §1, §2

Italian ryegrass = test: Test Example 5: herbicidal effect by foliage application, plastic box (Table 20, symbol K); type: in vivo, Italian ryegrass (Lolium multiflorum); settings: foliage application, three weeks after application
Excerpt: as §1, §2

windgrass = test: Test Example 5: herbicidal effect by foliage application, plastic box (Table 20, symbol L); type: in vivo, windgrass (Apera spica-venti); settings: foliage application, three weeks after application
Excerpt: as §1, §2

Chinese sprangletop = test: Test Example 3: herbicidal effect by foliage application, Wagner pot (Table 18, symbol D); type: in vivo, chinese sprangletop (Leptochloa chinensis)
Summary of the method: (§3)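 Plants were sown in alluvial soil held under 0.1–0.5 cm standing water and grown 14 days in a greenhouse at 25–30 °C. An emulsifiable formulation, water-diluted to the set dose, was then sprayed onto the foliage, and effects were scored three weeks later using previously defined criteria.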

velvetleaf = test: Test Example 5: herbicidal effect by foliage application, plastic box (Table 20, symbol M); type: in vivo, velvetleaf (Abutilon theophrasti); settings: foliage application, three weeks after application
Excerpt: as §1, §2

wild oat = test: Test Example 5: herbicidal effect by foliage application, plastic box (Table 20, symbol I); type: in vivo, wild oat (Avena fatua); settings: foliage application, three weeks after application
Excerpt: as §1, §2

green foxtail = test: Test Example 5: herbicidal effect by foliage application, plastic box (Table 20, symbol G); type: in vivo, green foxtail (Setaria viridis); settings: foliage application, three weeks after application
Excerpt: as §1, §2

rice flat sedge = test: Test Example 3: herbicidal effect by foliage application, Wagner pot (Table 18, symbol E); type: in vivo, rice flat sedge (Cyperus iria)
Summary of the method: as §3

blackgrass = test: Test Example 5: herbicidal effect by foliage application, plastic box (Table 20, symbol J); type: in vivo, blackgrass (Alopecurus myosuroides); settings: foliage application, three weeks after application
Excerpt: as §1, §2

barnyard grass [2] = test: Test Example 5: herbicidal effect by foliage application, plastic box (Table 20, symbol H); type: in vivo, barnyard grass (Echinochloa crus-galli); settings: foliage application, three weeks after application
Excerpt: as §1, §2

| Compound | herbicidal effect on lambsquarters (O) (lambsquarters; 320 g/ha) | herbicidal effect on southern crabgrass (F) (southern crabgrass; 320 g/ha) | herbicidal effect on barnyard grass (H) (barnyard grass [1]; 320 g/ha) | herbicidal effect on persian speedwell (R) (persian speedwell; 320 g/ha) | herbicidal effect on Italian ryegrass (K) (Italian ryegrass; 320 g/ha) | herbicidal effect on windgrass (L) (windgrass; 320 g/ha) | herbicidal effect on Chinese sprangletop (D) (Chinese sprangletop; 320 g/ha) | herbicidal effect on velvetleaf (M) (velvetleaf; 320 g/ha) | herbicidal effect on wild oat (I) (wild oat; 320 g/ha) | herbicidal effect on green foxtail (G) (green foxtail; 320 g/ha) | herbicidal effect on rice flat sedge (E) (rice flat sedge; 320 g/ha) | herbicidal effect on blackgrass (J) (blackgrass; 320 g/ha) | herbicidal effect on barnyard grass (H) (barnyard grass [2]; 320 g/ha) | also measured |
| --- | --- | --- | --- | --- | --- | --- | --- | --- | --- | --- | --- | --- | --- | --- |
| CCCC(=O)Oc1c(C)nn(C)c(=O)c1-c1c(-c2ccc(OC)c(OC)c2)sc2cc(OC)c(OC)cc12 [5-063] | 0 (Herbicidal rate of 5% or less (almost no effect)) | 0 (Herbicidal rate of 5% or less (almost no effect)) | 3 (Herbicidal rate of 40% or more and less than 70%) | 0 (Herbicidal rate of 5% or less (almost no effect)) | 1 (Herbicidal rate of 5% or more and less than 20%) | 0 (Herbicidal rate of 5% or less (almost no effect)) | 0 (Herbicidal rate of 5% or less (almost no effect)) | 0 (Herbicidal rate of 5% or less (almost no effect)) | 0 (Herbicidal rate of 5% or less (almost no effect)) | 0 (Herbicidal rate of 5% or less (almost no effect)) | 2 (Herbicidal rate of 20% or more and less than 40%) | 0 (Herbicidal rate of 5% or less (almost no effect)) | 0 (Herbicidal rate of 5% or less (almost no effect)) | – |
| COc1cc2sc(-c3ccc(F)cc3)c(-c3c(O)c(C)nn(C)c3=O)c2cc1-c1ccc(F)cc1 [5-078] | – | – | – | – | – | – | – | – | – | – | – | – | – | herbicidal effect on lambsquarters (O) (lambsquarters; 270 g/ha): 1 (Herbicidal rate of 5% or more and less than 20%); herbicidal effect on southern crabgrass (F) (southern crabgrass; 270 g/ha): 4 (Herbicidal rate of 70% or more and less than 90%); herbicidal effect on barnyard grass (H) (barnyard grass [1]; 270 g/ha): 4 (Herbicidal rate of 70% or more and less than 90%); herbicidal effect on persian speedwell (R) (persian speedwell; 270 g/ha): 0 (Herbicidal rate of 5% or less (almost no effect)); herbicidal effect on Italian ryegrass (K) (Italian ryegrass; 270 g/ha): 0 (Herbicidal rate of 5% or less (almost no effect)); herbicidal effect on windgrass (L) (windgrass; 270 g/ha): 0 (Herbicidal rate of 5% or less (almost no effect)); herbicidal effect on Chinese sprangletop (D) (Chinese sprangletop; 270 g/ha): 4 (Herbicidal rate of 70% or more and less than 90%); herbicidal effect on velvetleaf (M) (velvetleaf; 270 g/ha): 3 (Herbicidal rate of 40% or more and less than 70%); herbicidal effect on wild oat (I) (wild oat; 270 g/ha): 0 (Herbicidal rate of 5% or less (almost no effect)); herbicidal effect on green foxtail (G) (green foxtail; 270 g/ha): 5 (Herbicidal rate of 90% or more (almost completely withered)); herbicidal effect on rice flat sedge (E) (rice flat sedge; 270 g/ha): 3 (Herbicidal rate of 40% or more and less than 70%); herbicidal effect on blackgrass (J) (blackgrass; 270 g/ha): 0 (Herbicidal rate of 5% or less (almost no effect)); herbicidal effect on barnyard grass (H) (barnyard grass [2]; 270 g/ha): 4 (Herbicidal rate of 70% or more and less than 90%) |
| Cc1nn(C)c(=O)c(-c2c(-c3ccc(OC(F)F)cc3)sc3cc(Cl)c(Cl)cc23)c1O [5-086] | 5 (Herbicidal rate of 90% or more (almost completely withered)) | 0 (Herbicidal rate of 5% or less (almost no effect)) | 3 (Herbicidal rate of 40% or more and less than 70%) | 5 (Herbicidal rate of 90% or more (almost completely withered)) | 0 (Herbicidal rate of 5% or less (almost no effect)) | 5 (Herbicidal rate of 90% or more (almost completely withered)) | 0 (Herbicidal rate of 5% or less (almost no effect)) | 3 (Herbicidal rate of 40% or more and less than 70%) | 0 (Herbicidal rate of 5% or less (almost no effect)) | 0 (Herbicidal rate of 5% or less (almost no effect)) | 0 (Herbicidal rate of 5% or less (almost no effect)) | 5 (Herbicidal rate of 90% or more (almost completely withered)) | 0 (Herbicidal rate of 5% or less (almost no effect)) | – |
| Cc1cc2sc(-c3ccc(C#N)cc3)c(-c3c(O)c(C)nn(C)c3=O)c2cc1C [5-100] | 0 (Herbicidal rate of 5% or less (almost no effect)) | 0 (Herbicidal rate of 5% or less (almost no effect)) | – | 2 (Herbicidal rate of 20% or more and less than 40%) | 0 (Herbicidal rate of 5% or less (almost no effect)) | 0 (Herbicidal rate of 5% or less (almost no effect)) | – | 0 (Herbicidal rate of 5% or less (almost no effect)) | 0 (Herbicidal rate of 5% or less (almost no effect)) | 0 (Herbicidal rate of 5% or less (almost no effect)) | – | 0 (Herbicidal rate of 5% or less (almost no effect)) | 0 (Herbicidal rate of 5% or less (almost no effect)) | – |
| COc1ccccc1-c1sc2c(C)cc(C)cc2c1-c1c(O)c(C)nn(C)c1=O [6-002] | 2 (Herbicidal rate of 20% or more and less than 40%) | 0 (Herbicidal rate of 5% or less (almost no effect)) | 4 (Herbicidal rate of 70% or more and less than 90%) | 4 (Herbicidal rate of 70% or more and less than 90%) | 4 (Herbicidal rate of 70% or more and less than 90%) | 1 (Herbicidal rate of 5% or more and less than 20%) | 5 (Herbicidal rate of 90% or more (almost completely withered)) | 1 (Herbicidal rate of 5% or more and less than 20%) | 0 (Herbicidal rate of 5% or less (almost no effect)) | 3 (Herbicidal rate of 40% or more and less than 70%) | 3 (Herbicidal rate of 40% or more and less than 70%) | 4 (Herbicidal rate of 70% or more and less than 90%) | 0 (Herbicidal rate of 5% or less (almost no effect)) | – |
